From the supplement of paper PMC11061612

Columns and labels:
Experiment in all cases: combination Emax (second highest fraction inhibited in the dose matrix, 72 h); higher = more inhibition; extreme values may be limits of the assay
[1] = system: HDQ-P1 (Breast Carcinoma)
Outline: (§1)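 After 24 hours at 37°C and 5% CO2 in 1536-well plates, cells in DMEM/F12 or RPMI plus 10% FBS received two-drug dose matrices for 72 hours. Viability came from CellTiter-Glo 2.0 luminescence and was scaled as inhibition, anchored at 0 by vehicle wells and at 1 by blank wells. Combination Emax is taken as the second-highest inhibition in the matrix, and Bliss excess as the observed combination effect less EA + EB − EA·EB, with EA and EB the single-agent effects.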

[2] = system: SR (Other Blood Carcinomas)
Outline: as §1

[3] = system: K-562 (Chronic Myelogenous Leukemia)
Outline: as §1

[4] = system: KCL-22 (Chronic Myelogenous Leukemia)
Outline: as §1

[5] = system: MKN28 (Gastric Carcinoma)
Outline: as §1

[6] = system: MS751 (Cervical Carcinoma)
Outline: as §1

[7] = system: GR-ST (B-Lymphoblastic Leukemia)
Outline: as §1

CHP-212 (Neuroblastoma) = system: CHP-212 (Neuroblastoma)
Outline: as §1

NCI-H2818 (Mesothelioma) = system: NCI-H2818 (Mesothelioma)
Outline: as §1

[8] = system: PANC-08-13 (Pancreatic Carcinoma)
Outline: as §1

TC-71 (Ewing's Sarcoma) = system: TC-71 (Ewing's Sarcoma)
Outline: as §1

[9] = system: NCI-H1792 (Lung Adenocarcinoma)
Outline: as §1

[10] = system: MFM-223 (Breast Carcinoma)
Outline: as §1

ES1 (Ewing's Sarcoma) = system: ES1 (Ewing's Sarcoma)
Outline: as §1

[11] = system: KARPAS-45 (T-Lymphoblastic Leukemia)
Outline: as §1

[12] = system: DND-41 (T-Lymphoblastic Leukemia)
Outline: as §1

[13] = system: SU-DHL-8 (B-Cell Non-Hodgkin's Lymphoma)
Outline: as §1

WM-115 (Melanoma) = system: WM-115 (Melanoma)
Outline: as §1

[14] = system: L-540 (Hodgkin's Lymphoma)
Outline: as §1

| Structure (SMILES) | combination Emax [1] | combination Emax [2] | combination Emax [3] | combination Emax [4] | combination Emax [5] | combination Emax [6] | combination Emax [7] | combination Emax (CHP-212 (Neuroblastoma)) | combination Emax (NCI-H2818 (Mesothelioma)) | combination Emax [8] | combination Emax (TC-71 (Ewing's Sarcoma)) | combination Emax [9] | combination Emax [10] | combination Emax (ES1 (Ewing's Sarcoma)) | combination Emax [11] | combination Emax [12] | combination Emax [13] | combination Emax (WM-115 (Melanoma)) | combination Emax [14] |
| --- | --- | --- | --- | --- | --- | --- | --- | --- | --- | --- | --- | --- | --- | --- | --- | --- | --- | --- | --- |
| NC1(C(=O)N[C@@H](CCO)c2ccc(Cl)cc2)CCN(c2ncnc3[nH]ccc23)CC1 [Capivasertib] + Cn1cnc2c(F)c(Nc3ccc(Br)cc3Cl)c(C(=O)NOCCO)cc21 [Selumetinib] (first compound max 10 µM, 7x7, partner max 10 µM) | 0.596 | 0.582 | 0.425 | 0.604 | 0.241 | 0.263 | 0.678 | 0.946 | 0.318 | 0.405 | 0.438 | 0.504 | 0.894 | 0.52 | 0.627 | 0.233 | 0.0919 | 0.885 | 0.188 |
| Cc1nc(Nc2ncc(C(=O)Nc3c(C)cccc3Cl)s2)cc(N2CCN(CCO)CC2)n1 [Dasatinib] + CC(=O)Nc1cccc(-n2c(=O)n(C3CC3)c(=O)c3c(Nc4ccc(I)cc4F)n(C)c(=O)c(C)c32)c1 [Trametinib] (first compound max 2 µM, 7x7, partner max 1 µM) | 0.958 | 0.245 | 0.747 | 0.93 | 0.417 | 0.282 | 0.361 | 1 | 0.582 | 0.738 | 0.146 | 1 | 0.561 | 0.0713 | 0.592 | 0.263 | 0.0526 | 0.805 | 0.148 |
| COc1cc2ncnc(Nc3ccc(F)c(Cl)c3)c2cc1OCCCN1CCOCC1 [Gefitinib] + CC(C)n1c(=O)n(C)c2cnc3cc(F)c(-c4ccc(OCCCN5CCCCC5)nc4)cc3c21 [AZD1390] (first compound max 10 µM, 7x7, partner max 0.3 µM) | 0.383 | 0.2 | 0.13 | 0.155 | 0.0764 | 0.133 | 0.39 | 0.157 | 0.146 | 0.143 | 0.183 | 0.231 | 0.121 | 0.353 | 0.644 | 0.115 | 0.142 | 0.139 | 0.451 |
| CS(=O)(=O)CCNCc1ccc(-c2ccc3ncnc(Nc4ccc(OCc5cccc(F)c5)c(Cl)c4)c3c2)o1 [Lapatinib] + C[C@@H](Oc1cc(-c2cnn(C3CCNCC3)c2)cnc1N)c1c(Cl)ccc(F)c1Cl [Crizotinib] (first compound max 10 µM, 7x7, partner max 10 µM) | 0.936 | 1 | 0.962 | 0.979 | 0.779 | 0.987 | 0.988 | 0.988 | 0.59 | 0.802 | 0.758 | 0.924 | 0.662 | 0.965 | 1 | 0.946 | 0.694 | 0.877 | 0.911 |
| CC(=O)c1c(C)c2cnc(Nc3ccc(N4CCNCC4)cn3)nc2n(C2CCCC2)c1=O [Palbociclib] + CC1(C)CCC(CN2CCN(c3ccc(C(=O)NS(=O)(=O)c4ccc(NCC5CCOCC5)c([N+](=O)[O-])c4)c(Oc4cnc5[nH]ccc5c4)c3)CC2)=C(c2ccc(Cl)cc2)C1 [Venetoclax] (first compound max 10 µM, 7x7, partner max 1 µM) | 0.109 | 0.94 | 0.0413 | 0.513 | 0.0507 | 0.128 | 0.715 | 0.481 | 0.203 | 0.157 | 0.272 | 0.465 | 0.346 | 0.56 | 1 | 0.45 | 0.37 | 0.0976 | 0.257 |
| CC(=O)c1c(C)c2cnc(Nc3ccc(N4CCNCC4)cn3)nc2n(C2CCCC2)c1=O [Palbociclib] + Cc1c2c(nn1C)CSCc1cc(n(C)n1)CSc1cc(c3ccccc3c1)OCCCc1c(C(=O)O)n(C)c3c-2c(Cl)ccc13 [AZD5991] (first compound max 10 µM, 7x7, partner max 1 µM) | 0.263 | 0.993 | 0.132 | 0.673 | 0.133 | 0.833 | 0.719 | 0.882 | 0.367 | 0.221 | 0.586 | 0.571 | 0.388 | 0.917 | 0.99 | 0.51 | 0.683 | 0.293 | 0.981 |
| CC(=O)c1c(C)c2cnc(Nc3ccc(N4CCNCC4)cn3)nc2n(C2CCCC2)c1=O [Palbociclib] + Cn1cnc2c(F)c(Nc3ccc(Br)cc3Cl)c(C(=O)NOCCO)cc21 [Selumetinib] (first compound max 10 µM, 7x7, partner max 10 µM) | 0.289 | 0.873 | 0.237 | 0.569 | 0.3 | 0.236 | 0.726 | 0.979 | 0.208 | 0.221 | 0.396 | 0.651 | 0.317 | 0.616 | 0.964 | 0.489 | 0.32 | 0.415 | 0.25 |
| C[C@@H](c1ccc2nccn2c1)n1nnc2ncc(-c3cnn(C)c3)nc21 [Savolitinib] + CC1(C)CCC(CN2CCN(c3ccc(C(=O)NS(=O)(=O)c4ccc(NCC5CCOCC5)c([N+](=O)[O-])c4)c(Oc4cnc5[nH]ccc5c4)c3)CC2)=C(c2ccc(Cl)cc2)C1 [Venetoclax] (first compound max 1 µM, 7x7, partner max 1 µM) | 0.117 | 0.437 | 0.155 | 0.137 | 0.0564 | 0.176 | 0.218 | 0.108 | 0.127 | 0.109 | 0.119 | 0.108 | 0.0596 | 0.113 | 0.322 | 0.233 | 0.288 | 0.199 | 0.246 |
| C[C@@H](c1ccc2nccn2c1)n1nnc2ncc(-c3cnn(C)c3)nc21 [Savolitinib] + Cc1c2c(nn1C)CSCc1cc(n(C)n1)CSc1cc(c3ccccc3c1)OCCCc1c(C(=O)O)n(C)c3c-2c(Cl)ccc13 [AZD5991] (first compound max 1 µM, 7x7, partner max 1 µM) | 0.2 | 0.772 | 0.159 | 0.289 | 0.0861 | 0.773 | 0.145 | 0.787 | 0.16 | 0.146 | 0.412 | 0.214 | 0.244 | 0.743 | 0.882 | 0.172 | 0.697 | 0.185 | 0.975 |
| Cn1cnc2c(F)c(Nc3ccc(Br)cc3Cl)c(C(=O)NOCCO)cc21 [Selumetinib] + C=CCn1c(=O)c2cnc(Nc3ccc(N4CCN(C)CC4)cc3)nc2n1-c1cccc(C(C)(C)O)n1 [AZD1775] (first compound max 10 µM, partner max 1 µM) | 0.673 | 0.978 | 0.834 | 0.943 | 0.276 | 0.575 | 0.801 | 0.978 | 0.303 | 0.305 | 0.355 | 0.632 | 0.446 | 0.602 | 0.909 | 0.898 | 1 | 0.402 | 0.905 |
| Cn1cnc2c(F)c(Nc3ccc(Br)cc3Cl)c(C(=O)NOCCO)cc21 [Selumetinib] + CC(C)n1c(=O)n(C)c2cnc3cc(F)c(-c4ccc(OCCCN5CCCCC5)nc4)cc3c21 [AZD1390] (first compound max 10 µM, 7x7, partner max 0.3 µM) | 0.248 | 0.129 | 0.168 | 0.478 | 0.137 | 0.144 | 0.225 | 0.923 | 0.138 | 0.111 | 0.237 | 0.378 | 0.0965 | 0.0951 | 0.0319 | 0.157 | 0.0761 | 0.411 | 0.0301 |
| Cn1cnc2c(F)c(Nc3ccc(Br)cc3Cl)c(C(=O)NOCCO)cc21 [Selumetinib] + CCN(CCO)CCCOc1ccc2c(Nc3cc(CC(=O)Nc4cccc(F)c4)[nH]n3)ncnc2c1 [AZD2811] (first compound max 10 µM, 7x7, partner max 1 µM) | 0.393 | 0.942 | 0.32 | 0.593 | 0.191 | 0.639 | 0.316 | 0.972 | 0.168 | 0.22 | 0.838 | 0.423 | 0.17 | 0.532 | 0.926 | 0.199 | 0.354 | 0.434 | 0.194 |
| Cn1cnc2c(F)c(Nc3ccc(Br)cc3Cl)c(C(=O)NOCCO)cc21 [Selumetinib] + C[C@@H]1COCCN1C2=NC(=NC(=C2)C3(CC3)[S@](=N)(=O)C)C4=C5C=CNC5=NC=C4 [AZD6738] (first compound max 10 µM, 7x7, partner max 10 µM) | 0.455 | 0.889 | 0.866 | 0.984 | 0.202 | 0.476 | 0.766 | 0.989 | 0.252 | 0.239 | 0.945 | 0.76 | 0.673 | 0.898 | 0.868 | 0.897 | 0.936 | 0.617 | 0.889 |
